Measurements reported in US20260022096A1, “NOVEL SULFONAMIDES AND THEIR USE AS NEUROPROTECTIVE AND/OR NEURORESTORATIVE AGENTS” (GENECODE, priority 2022, published 2026).
pEC50: −log10 of the molar value.

What follows are compounds tested against T1, GFRα1-RET (Homo sapiens, UniProt P56159) (assay: Elk1 reporter-gene (luciferase) assay in cells expressing GFRα1-RET). Details: MG87 murine fibroblasts stably transfected with PathDetect Elk-1, GFRα1 and RET, 6 concentrations, agonist/activator activity.
T1 construct: expressed in transfected cells; host or cells: MG87 murine fibroblasts, stably transfected
T1 sequence (P56159 25-429 limits assumed): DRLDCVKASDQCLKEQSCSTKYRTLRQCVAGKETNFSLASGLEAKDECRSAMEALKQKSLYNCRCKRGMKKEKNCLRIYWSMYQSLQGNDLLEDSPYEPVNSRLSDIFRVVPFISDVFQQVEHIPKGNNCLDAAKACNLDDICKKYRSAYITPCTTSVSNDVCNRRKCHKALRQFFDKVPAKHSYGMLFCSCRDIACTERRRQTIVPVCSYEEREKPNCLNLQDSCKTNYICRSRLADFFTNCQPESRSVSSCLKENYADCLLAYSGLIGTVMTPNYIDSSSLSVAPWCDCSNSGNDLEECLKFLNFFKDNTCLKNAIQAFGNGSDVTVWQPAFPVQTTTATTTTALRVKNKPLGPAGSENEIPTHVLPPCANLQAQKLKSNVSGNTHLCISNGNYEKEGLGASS
Type: cell-based
Experimental: For ECso determination, a dose-response test was performed using 6 concentrations of each tested compound. Dose-response curves were fitted using the sigmoidal dose-response (variable slope) analysis in GraphPad Prism program (Graph Pad Inc) and ECso of agonist/activator activity was calculated. Dose-response experiments were all performed in duplicate, two times independently.

| Structure (SMILES) | pEC50 |
| --- | --- |
| CNC1CN(c2ccc(S(=O)(=O)N3CCC(c4ccccc4)CC3)cc2N2[C@@H]3CC[C@H]2CN(C(=O)c2ccc(F)cc2Cl)C3)C1 [compound 123, (2-chloro-4-fluoro-phenyl)-[(1S,5R)-8-[2-[3-(methylamino)azetidin-1-yl]-5-[(4-phenyl-1-piperidyl)sulfonyl]phenyl]-3,8-diazabicyclo[3.2.1]octan-3-yl]methanone] | > 6.00 |
| Cc1c(O)cc(S(=O)(=O)N2CCC(c3ccccc3)CC2)cc1N1[C@@H]2CC[C@H]1CN(C(=O)c1ccc(F)cc1Cl)C2 [compound 124, (2-chloro-4-fluoro-phenyl)-[(1S,5R)-8-[3-hydroxy-2-methyl-5-[(4-phenyl-1-piperidyl)sulfonyl]phenyl]-3,8-diazabicyclo[3.2.1]octan-3-yl]methanone] | > 6.00 |
| N#Cc1ccc(S(=O)(=O)N2CCC(c3ccccc3)CC2)cc1N1[C@@H]2CC[C@H]1CN(C(=O)c1ccc(F)cc1Cl)C2 [compound 125] | > 6.00 |
| COc1ccc(S(=O)(=O)NC(C)(C)C)cc1N1[C@@H]2CC[C@H]1CN(C(=O)c1cc(F)c(F)cc1Cl)C2 [compound 129, N-tert-butyl-3-[(1S,5R)-3-(2-chloro-4,5-difluoro-benzoyl)-3,8-diazabicyclo[3.2.1]octan-8-yl]-4-methoxy-benzenesulfonamide] | > 6.00 |
| O=C(c1ccc(F)cc1Cl)N1C[C@H]2CC[C@@H](C1)N2c1cc(S(=O)(=O)N2CCC(F)CC2)cc2c1OCC2 [compound 130, (2-chloro-4-fluoro-phenyl)-[(1S,5R)-8-[5-[(4-fluoro-1-piperidyl)sulfonyl]-2,3-dihydrobenzofuran-7-yl]-3,8-diazabicyclo[3.2.1]octan-3-yl]methanone] | > 6.00 |
| CC1(C)COCCN1S(=O)(=O)c1cc(Cl)c(O)c(N2[C@@H]3CC[C@H]2CN(C(=O)c2ccc(F)cc2Cl)C3)c1 [compound 131, [(1S,5R)-8-[3-chloro-5-(3,3-dimethylmorpholin-4-yl)sulfonyl-2-hydroxy-phenyl]-3,8-diazabicyclo[3.2.1]octan-3-yl]-(2-chloro-4-fluoro-phenyl)methanone] | > 6.00 |
| Cc1c(Cl)cc(S(=O)(=O)N(C)C(C)(C)C)cc1N1[C@@H]2CC[C@H]1CN(C(=O)c1ccc(F)cc1Cl)C2 [compound 132, N-tert-butyl-3-chloro-5-[(1S,5R)-3-(2-chloro-4-fluoro-benzoyl)-3,8-diazabicyclo[3.2.1]octan-8-yl]-N,4-dimethyl-benzenesulfonamide] | > 6.00 |
| CN(C(C)(C)C)S(=O)(=O)c1cc(Cl)c(Cl)c(N2[C@@H]3CC[C@H]2CN(C(=O)c2ccc(F)cc2Cl)C3)c1 [compound 133, N-tert-butyl-3,4-dichloro-5-[(1S,5R)-3-(2-chloro-4-fluoro-benzoyl)-3,8-diazabicyclo[3.2.1]octan-8-yl]-N-methyl-benzenesulfonamide] | > 6.00 |
| CN(C(C)(C)C)S(=O)(=O)c1cc(Cl)c(OCCO)c(N2[C@@H]3CC[C@H]2CN(C(=O)c2ccc(F)cc2Cl)C3)c1 [compound 134] | > 6.00 |
| COCCOc1c(Cl)cc(S(=O)(=O)N(C)C(C)(C)C)cc1N1[C@@H]2CC[C@H]1CN(C(=O)c1ccc(F)cc1Cl)C2 [compound 135, N-tert-butyl-3-chloro-5-[(1S,5R)-3-(2-chloro-4-fluoro-benzoyl)-3,8-diazabicyclo[3.2.1]octan-8-yl]-4-(2-methoxyethoxy)-N-methyl-benzenesulfonamide] | > 6.00 |
| CN(C(C)(C)C)S(=O)(=O)c1cc(Cl)c(OCc2ccccc2)c(N2[C@@H]3CC[C@H]2CN(C(=O)c2ccc(F)cc2Cl)C3)c1 [compound 136, 4-benzyloxy-N-tert-butyl-3-chloro-5-[(1S,5R)-3-(2-chloro-4-fluoro-benzoyl)-3,8-diazabicyclo[3.2.1]octan-8-yl]-N-methyl-benzenesulfonamide] | > 6.00 |
| CN(C(C)(C)C)S(=O)(=O)c1cc(Cl)c(OCc2cccnc2)c(N2[C@@H]3CC[C@H]2CN(C(=O)c2ccc(F)cc2Cl)C3)c1 [compound 137] | > 6.00 |
| CN(C(C)(C)C)S(=O)(=O)c1cc(Cl)c(OCc2ccncc2)c(N2[C@@H]3CC[C@H]2CN(C(=O)c2ccc(F)cc2Cl)C3)c1 [compound 138, N-tert-butyl-3-chloro-5-[(1S,5R)-3-(2-chloro-4-fluoro-benzoyl)-3,8-diazabicyclo[3.2.1]octan-8-yl]-N-methyl-4-(4-pyridylmethoxy) benzenesulfonamide] | > 6.00 |
| CC(C)(C)NS(=O)(=O)c1cc(Cl)c(O)c(N2[C@@H]3CC[C@H]2CN(C(=O)c2ccc(F)cc2Cl)C3)c1F [compound 139, N-tert-butyl-5-chloro-3-[(1S,5R)-3-(2-chloro-4-fluoro-benzoyl)-3,8-diazabicyclo[3.2.1]octan-8-yl]-2-fluoro-4-hydroxy-benzenesulfonamide] | > 6.00 |
